From patent US20020132220A1, “Use of selectin antagonists in organ preservation solutions” (priority 2000, published 2002)
Counter-ions that a name gives are not always drawn.

Columns and labels:
rat kidney [1] = assay: Syngeneic rat kidney transplantation (Lewis to Lewis) after flushing the kidney with perfusate; ischemia/reperfusion injury; format: in vivo; conditions: for Blood Urea Nitrogen / Serum Creatinine / GFR: syngeneic transplantation; for GFR: 4° C., 30 min on ice
Method: (§1) To determine the effects of bimosiamose on the ischemia/reperfusion component of transplant injury, the following experiment was performed. To test bimosiamose solutions, a rat kidney is flushed with a solution containing bimosiamose (compound 1, 1,6-bis-(3-(3-carbomethylphenyl)-4-(2-α-D-mannopyranosyloxy)phenyl)hexane disodium salt, prepared according to the procedure described in U.S. Pat. No. 5,919,768) upon harvest from a donor and prior to placement into a recipient, to determine whether or not there is any protective effect. Rats for both examples were supplied by Harlan. A syngeneic transplantation model (Lewis rat to Lewis rat) was utilized. In this model, the immune system mediated rejection component is not relevant since the donor and recipient are of similar genetic background (syngeneic). In this experiment, test bimosiamose solutions were made up in a concentration of 100 mg/ml in phosphate-buffered saline solution, at a pH of 7.4. Test amounts of bimoisamose solution (as indicated in column 1 of Table 1) were added to Collins solution, to form the test perfusate solution. The Collins solution was purchased from Baxter, and contained 740 mg dibasic potassium phosphate, 205 mg monobasic potassium phosphate, 112 mg potassium chloride and 84 mg sodium bicarbonate per 100 mL solution, at pH 7.4. The test perfusate solution was cooled to a temperature of 4° C., and then 2 ml was utilized to perfuse the organ, which was afterwards maintained on ice for thirty minutes. Perfusion pressure was at or below physiologic pressure during the perfusion.
(§2) Following the 30 minute cold-temperature perfusion, transplantation was performed by transplanting a graft organ using end-to-end anastomosis of the renal artery, vein and ureter, with a simultaneous contralateral nephrectomy, wherein when the graft fails, the recipient does shortly thereafter.
This injury is the result of 30 minutes of cold ischemia with an additional 30 minutes of warm ischemia during the surgical re-anastomosis. N in the first column of Table 1 indicates sample size, i.e.—when N=6, six animals were tested. […] These observations are supported by reductions in serum creatinine and blood urea nitrogen (see Table 1). Therefore, Table 1 illustrates a statistically significant improvements associated with bimosiamose treatment.

rat kidney [2] = assay: Allogeneic rat kidney transplantation (Lewis to ACI) after flushing the kidney with perfusate; graft/recipient survival; format: in vivo, Lewis rats to ACI rats; conditions: for Survival: allogeneic transplantation, no immunosuppression
Method: as §1, §2
The procedure described in Example 1 was also utilized to determine what effect bimosiamose solutions would have when transplantation between donor and recipient were not matched for histocompatibility (test rats are allogenic). […]

[3] = kidney perfused with 0.5 mg/ml in Collins solution
[4] = kidney perfused with 1.0 mg/ml in Collins solution

O=C(O)Cc1cccc(-c2cc(CCCCCCc3ccc(OC4OC(CO)C(O)C(O)C4O)c(-c4cccc(CC(=O)O)c4)c3)ccc2OC2OC(CO)C(O)C(O)C2O)c1 [Cmpd. 1, 1,6-bis-(3-(3-carbomethylphenyl)-4-(2-α-D-mannopyranosyloxy)phenyl)hexane disodium salt]
Renal function (in words) (rat kidney [1]; flushing the organ with a solution containing 1 mg/2 ml or 2 mg/2 ml): preservation of renal function
Blood Urea Nitrogen (rat kidney [1]; [3]): 49.8 ± 24.2 mg/dL
Serum Creatinine (rat kidney [1]; [3]): 0.62 ± 0.23 mg/dL
GFR (rat kidney [1]; [3]): 0.70 ± 0.37 mL/min
Blood Urea Nitrogen (rat kidney [1]; [4]): 32.0 ± 4.6 mg/dL
Serum Creatinine (rat kidney [1]; [4]): 0.48 ± 0.08 mg/dL
GFR (rat kidney [1]; [4]): 0.91 ± 0.08 mL/min
Survival (rat kidney [2]; kidney flushed with 0.5 mg/ml): 18.50 ± 6.45 days
Survival (rat kidney [2]; kidney flushed with 1.0 mg/ml): 30.25 ± 13.25 days
Graft function/survival (in words) (rat kidney [2]; renal allografts flushed with solution, without standard immunosuppressive agents): dose-related preservation of graft function/survival
